Results taken from patent US6339042B1, “Herbicidal N-cyclohexadienyl heteroaryloxyacetamides” (American Cyanamid Co., priority 1999, dated 2002).

Legend:
Details in all cases: three weeks after treatment
[1] = test system: Zea mays; assay: Pre-emergence herbicidal evaluation, ZEAMX; format: in vivo
Excerpt: (§1) The treated pots are then placed on greenhouse benches, watered and cared for in accordance with conventional greenhouse procedures.

[2] = test system: Hordeum vulgare; assay: Pre-emergence herbicidal evaluation, HORVW; format: in vivo
Excerpt: as §1

[3] = test system: Lolium perenne; assay: Post-emergence herbicidal evaluation, LOLPE
Procedure: (§2) Each pot is examined three weeks after treatment and phytotoxicity is assessed according to the rating system set forth below.
(§3) These acetone solutions are diluted with water and the resulting formulations applied at dosage levels equivalent of about 0.4 to 0.1 kg per hectare of test compound per pot. After spraying the plants are placed on greenhouse benches and are cared for in the usual manner, commensurate with conventional greenhouse practices.

[4] = test system: Echinochloa crus-galli; assay: Post-emergence herbicidal evaluation, ECHCG
[5] = test system: Echinochloa crus-galli; assay: Pre-emergence herbicidal evaluation, ECHCG; format: in vivo
Excerpt: as §1

[6] = test system: Setaria viridis; assay: Pre-emergence herbicidal evaluation, SETVI; format: in vivo
Excerpt: as §1

[7] = test system: Apera spica venti; assay: Post-emergence herbicidal evaluation, APESV
Procedure: The compounds of the invention are tested for pre- and post-emergence herbicidal activity.
as §2, §3

[8] = test system: Zea mays; assay: Post-emergence herbicidal evaluation, ZEAMX
[9] = test system: Glycine max; assay: Post-emergence herbicidal evaluation, GLXMA
Procedure: as §2, §3

[10] = test system: Apera spica venti; assay: Pre-emergence herbicidal evaluation, APESV; format: in vivo
Excerpt: as §1

[11] = test system: Amaranthus tuberculatus; assay: Post-emergence herbicidal evaluation, AMATA; format: in vivo
[12] = test system: Oryza sativum; assay: Pre-emergence herbicidal evaluation, ORYSA; format: in vivo
Excerpt: as §1

[13] = test system: Alopecurus myosuroides; assay: Pre-emergence herbicidal evaluation, ALOMY; format: in vivo
Excerpt: as §1

[14] = test system: Triticum aestivum; assay: Post-emergence herbicidal evaluation, TRZAW
[15] = test system: Amaranthus tuberculatus; assay: Pre-emergence herbicidal evaluation, AMATA; format: in vivo
Excerpt: as §1

[16] = test system: Triticum aestivum; assay: Pre-emergence herbicidal evaluation, TRZAW; format: in vivo
Excerpt: as §1

[17] = test system: Glycine max; assay: Pre-emergence herbicidal evaluation, GLXMA; format: in vivo
Excerpt: as §1

[18] = test system: Oryza sativum; assay: Post-emergence herbicidal evaluation, ORYSA
[19] = test system: Galium aparine; assay: Post-emergence herbicidal evaluation, GALAP
[20] = test system: Lolium perenne; assay: Pre-emergence herbicidal evaluation, LOLPE; format: in vivo
Excerpt: as §1

[21] = test system: Hordeum vulgare; assay: Post-emergence herbicidal evaluation, HORVW
[22] = test system: Setaria viridis; assay: Post-emergence herbicidal evaluation, SETVI
[23] = test system: Alopecurus myosuroides; assay: Post-emergence herbicidal evaluation, ALOMY

CC1=CC(N(C)C(=O)COc2nnc(C(F)(F)C(F)(F)F)s2)=CC(C)(C)C1 [Example 7]
phytotoxicity rating ZEAMX ([1]; 0.100 kg/ha): 0 (0 - No effect) | phytotoxicity rating ZEAMX ([1]; 0.200 kg/ha): 0 (0 - No effect) | phytotoxicity rating ZEAMX ([1]; 0.400 kg/ha): 0 (0 - No effect) | phytotoxicity rating ZEAMX ([1]; 0.800 kg/ha): 1 (1 - Trace effect) | phytotoxicity rating HORVW ([2]; 0.100 kg/ha): 0 (0 - No effect) | phytotoxicity rating HORVW ([2]; 0.200 kg/ha): 0 (0 - No effect) | phytotoxicity rating HORVW ([2]; 0.400 kg/ha): 1 (1 - Trace effect) | phytotoxicity rating HORVW ([2]; 0.800 kg/ha): 1 (1 - Trace effect) | phytotoxicity rating LOLPE ([3]; 0.100 kg/ha): 0 (0 - No effect) | phytotoxicity rating LOLPE ([3]; 0.200 kg/ha): 6 (6 - Herbicidal effect) | phytotoxicity rating LOLPE ([3]; 0.400 kg/ha): 6 (6 - Herbicidal effect) | phytotoxicity rating ECHCG ([4]; 0.100 kg/ha): 0 (0 - No effect) | phytotoxicity rating ECHCG ([4]; 0.200 kg/ha): 0 (0 - No effect) | phytotoxicity rating ECHCG ([4]; 0.400 kg/ha): 0 (0 - No effect) | phytotoxicity rating ECHCG ([5]; 0.100 kg/ha): 0 (0 - No effect) | phytotoxicity rating ECHCG ([5]; 0.200 kg/ha): 0 (0 - No effect) | phytotoxicity rating ECHCG ([5]; 0.400 kg/ha): 6 (6 - Herbicidal effect) | phytotoxicity rating ECHCG ([5]; 0.800 kg/ha): 9 (9 - Complete kill) | phytotoxicity rating SETVI ([6]; 0.100 kg/ha): 0 (0 - No effect) | phytotoxicity rating SETVI ([6]; 0.200 kg/ha): 0 (0 - No effect) | phytotoxicity rating SETVI ([6]; 0.400 kg/ha): 0 (0 - No effect) | phytotoxicity rating SETVI ([6]; 0.800 kg/ha): 2 (2 - Slight effect) | phytotoxicity rating APESV ([7]; 0.100 kg/ha): 0 (0 - No effect) | phytotoxicity rating APESV ([7]; 0.200 kg/ha): 0 (0 - No effect) | phytotoxicity rating APESV ([7]; 0.400 kg/ha): 2 (2 - Slight effect) | phytotoxicity rating ZEAMX ([8]; 0.100 kg/ha): 0 (0 - No effect) | phytotoxicity rating ZEAMX ([8]; 0.200 kg/ha): 0 (0 - No effect) | phytotoxicity rating ZEAMX ([8]; 0.400 kg/ha): 0 (0 - No effect) | phytotoxicity rating GLXMA ([9]; 0.100 kg/ha): 2 (2 - Slight effect) | phytotoxicity rating GLXMA ([9]; 0.200 kg/ha): 2 (2 - Slight effect) | phytotoxicity rating GLXMA ([9]; 0.400 kg/ha): 5 (5 - Definite injury) | phytotoxicity rating APESV ([10]; 0.200 kg/ha): 0 (0 - No effect) | phytotoxicity rating APESV ([10]; 0.400 kg/ha): 0 (0 - No effect) | phytotoxicity rating APESV ([10]; 0.800 kg/ha): 7 (7 - Good herbicidal effect) | phytotoxicity rating AMATA ([11]; 0.100 kg/ha): 3 (3 - Moderate effect) | phytotoxicity rating AMATA ([11]; 0.200 kg/ha): 3 (3 - Moderate effect) | phytotoxicity rating AMATA ([11]; 0.400 kg/ha): 5 (5 - Definite injury) | phytotoxicity rating ORYSA ([12]; 0.100 kg/ha): 0 (0 - No effect) | phytotoxicity rating ORYSA ([12]; 0.200 kg/ha): 0 (0 - No effect) | phytotoxicity rating ORYSA ([12]; 0.400 kg/ha): 0 (0 - No effect) | phytotoxicity rating ORYSA ([12]; 0.800 kg/ha): 2 (2 - Slight effect) | phytotoxicity rating ALOMY ([13]; 0.100 kg/ha): 0 (0 - No effect) | phytotoxicity rating ALOMY ([13]; 0.200 kg/ha): 2 (2 - Slight effect) | phytotoxicity rating ALOMY ([13]; 0.400 kg/ha): 5 (5 - Definite injury) | phytotoxicity rating ALOMY ([13]; 0.800 kg/ha): 5 (5 - Definite injury) | phytotoxicity rating TRZAW ([14]; 0.100 kg/ha): 0 (0 - No effect) | phytotoxicity rating TRZAW ([14]; 0.200 kg/ha): 0 (0 - No effect) | phytotoxicity rating TRZAW ([14]; 0.400 kg/ha): 0 (0 - No effect) | phytotoxicity rating AMATA ([15]; 0.100 kg/ha): 0 (0 - No effect) | phytotoxicity rating AMATA ([15]; 0.200 kg/ha): 0 (0 - No effect) | phytotoxicity rating AMATA ([15]; 0.400 kg/ha): 3 (3 - Moderate effect) | phytotoxicity rating AMATA ([15]; 0.800 kg/ha): 3 (3 - Moderate effect) | phytotoxicity rating TRZAW ([16]; 0.100 kg/ha): 0 (0 - No effect) | phytotoxicity rating TRZAW ([16]; 0.200 kg/ha): 0 (0 - No effect) | phytotoxicity rating TRZAW ([16]; 0.400 kg/ha): 0 (0 - No effect) | phytotoxicity rating TRZAW ([16]; 0.800 kg/ha): 0 (0 - No effect) | phytotoxicity rating GLXMA ([17]; 0.100 kg/ha): 0 (0 - No effect) | phytotoxicity rating GLXMA ([17]; 0.200 kg/ha): 0 (0 - No effect) | phytotoxicity rating GLXMA ([17]; 0.400 kg/ha): 0 (0 - No effect) | phytotoxicity rating GLXMA ([17]; 0.800 kg/ha): 0 (0 - No effect) | phytotoxicity rating ORYSA ([18]; 0.100 kg/ha): 0 (0 - No effect) | phytotoxicity rating ORYSA ([18]; 0.200 kg/ha): 0 (0 - No effect) | phytotoxicity rating ORYSA ([18]; 0.400 kg/ha): 3 (3 - Moderate effect) | phytotoxicity rating GALAP ([19]; 0.100 kg/ha): 0 (0 - No effect) | phytotoxicity rating GALAP ([19]; 0.200 kg/ha): 3 (3 - Moderate effect) | phytotoxicity rating GALAP ([19]; 0.400 kg/ha): 5 (5 - Definite injury) | phytotoxicity rating LOLPE ([20]; 0.100 kg/ha): 0 (0 - No effect) | phytotoxicity rating LOLPE ([20]; 0.200 kg/ha): 0 (0 - No effect) | phytotoxicity rating LOLPE ([20]; 0.400 kg/ha): 3 (3 - Moderate effect) | phytotoxicity rating LOLPE ([20]; 0.800 kg/ha): 9 (9 - Complete kill) | phytotoxicity rating HORVW ([21]; 0.100 kg/ha): 0 (0 - No effect) | phytotoxicity rating HORVW ([21]; 0.200 kg/ha): 0 (0 - No effect) | phytotoxicity rating HORVW ([21]; 0.400 kg/ha): 0 (0 - No effect) | phytotoxicity rating SETVI ([22]; 0.100 kg/ha): 0 (0 - No effect) | phytotoxicity rating SETVI ([22]; 0.200 kg/ha): 0 (0 - No effect) | phytotoxicity rating SETVI ([22]; 0.400 kg/ha): 0 (0 - No effect) | phytotoxicity rating ALOMY ([23]; 0.100 kg/ha): 0 (0 - No effect) | phytotoxicity rating ALOMY ([23]; 0.200 kg/ha): 0 (0 - No effect) | phytotoxicity rating ALOMY ([23]; 0.400 kg/ha): 4 (4 - Injury)
